Consider ten compounds from patent EP3959993B1, “METHOD FOR SOLVENT FREE PRODUCTION OF AROMA CONCENTRATES” (Symrise AG, priority 2020, dated 2022).

Series [1] in a line: Influence of the amount of NaCl on the distribution between oil phase and water phase (Example 5). The format is physicochemical.
The nature of series [2]: Second oil phase obtained by adding NaCl to the water phase (Example 4). In kind it is physicochemical. The conditions noted are these: after separating oil phases I and II. Here is the method: Cross linked polystyrene was used as adsorbent material. The volume flux for loading the adsorbent was 300 ml/min.
The adsorbent was heated to 150 °C, the temperature of the applied water steam was 160 °C.
The water steam flux was 10 g/min and was applied for 100 min.
The oil and water phases were separated.
A second oil phase was separated and was collected.

With `CCC/C=C/CO` [trans-2-hexenol], the “Distribution in [%] between oil phase and water phase after condensation: Oil phase” value stood at 37.9% in series [1] (NaCl 0%); 73.6% in series [1] (NaCl 27.8 %); 82.6% in series [1] (NaCl 41.67%); 88.4% in series [1] (NaCl 55.56 %); 91.7% in series [1] (NaCl 69.44 %); 94% in series [1] (NaCl 83.33 %). Besides, the “Distribution in [%] between oil phase and water phase after condensation: Water phase” value in series [1] (NaCl 0%) was determined as 62.1%; in series [1] (NaCl 27.8 %) it was 26.4%; in series [1] (NaCl 41.67%) it was 17.4%; in series [1] (NaCl 55.56 %), 11.6%; in series [1] (NaCl 69.44 %) it was 8.3%; in series [1] (NaCl 83.33 %) it was 6%. The “Loss in the water phase” value in series [2] is on record as 6,0%.
Consider `CC/C=C\CCO` [cis-3-hexenol], for which the “Distribution in [%] between oil phase and water phase after condensation: Oil phase” value in series [1] (NaCl 0%) is listed as 30.6%; in series [1] (NaCl 27.8 %) it was 62.8%; in series [1] (NaCl 41.67%) it was 73.3%; in series [1] (NaCl 55.56 %), 80.5%; in series [1] (NaCl 69.44 %), 85.6%; in series [1] (NaCl 83.33 %), 89.2%. Also, the “Distribution in [%] between oil phase and water phase after condensation: Water phase” value in series [1] (NaCl 0%) was 69.4%; in series [1] (NaCl 27.8 %) it was 37.2%; in series [1] (NaCl 41.67%) it was 26.7%; in series [1] (NaCl 55.56 %), 19.5%; in series [1] (NaCl 69.44 %), 14.4%; in series [1] (NaCl 83.33 %) it was 10.8%. Moreover, the “Loss in the water phase” value in series [2] is 10,8%.
For `CCCCCCO` [hexanol], the “Distribution in [%] between oil phase and water phase after condensation: Oil phase” value is given as 59.2% in series [1] (NaCl 0%); 89.6% in series [1] (NaCl 27.8 %); 93.8% in series [1] (NaCl 41.67%); 96.2% in series [1] (NaCl 55.56 %); 97.5% in series [1] (NaCl 69.44 %); 98.2% in series [1] (NaCl 83.33 %). Also, the “Distribution in [%] between oil phase and water phase after condensation: Water phase” value in series [1] (NaCl 0%) was found to be 40.8%; in series [1] (NaCl 27.8 %) it was 10.4%; in series [1] (NaCl 41.67%) it was 6.2%; in series [1] (NaCl 55.56 %) it was 3.8%; in series [1] (NaCl 69.44 %) it was 2.5%; in series [1] (NaCl 83.33 %), 1.8%. The “Loss in the water phase” value in series [2] is reported as 1,8%.
`CCC(C)CO` (stereo not drawn) [2-methyl butanol]: the “Distribution in [%] between oil phase and water phase after condensation: Oil phase” value in series [1] (NaCl 0%) is recorded as 30.8%; in series [1] (NaCl 27.8 %), 69%; in series [1] (NaCl 41.67%), 64.4%; in series [1] (NaCl 55.56 %) it was 70.6%; in series [1] (NaCl 69.44 %) it was 82.5%; in series [1] (NaCl 83.33 %), 82.7%. Further, the “Distribution in [%] between oil phase and water phase after condensation: Water phase” value in series [1] (NaCl 0%) is reported as 69.2%; in series [1] (NaCl 27.8 %) it was 31%; in series [1] (NaCl 41.67%), 35.6%; in series [1] (NaCl 55.56 %) it was 29.4%; in series [1] (NaCl 69.44 %), 17.5%; in series [1] (NaCl 83.33 %), 17.3%. Further, in series [2], the “Loss in the water phase” value is recorded as 17,3%.
`CCCC(=O)OCC` [ethyl butyrate]: the “Distribution in [%] between oil phase and water phase after condensation: Oil phase” value in series [1] (NaCl 0%) is 49.4%; in series [1] (NaCl 27.8 %), 85.1%; in series [1] (NaCl 41.67%) it was 92.9%; in series [1] (NaCl 55.56 %) it was 95.4%; in series [1] (NaCl 69.44 %), 97.7%; in series [1] (NaCl 83.33 %), 98.7%. Also, the “Distribution in [%] between oil phase and water phase after condensation: Water phase” value in series [1] (NaCl 0%) turned out to be 50.6%; in series [1] (NaCl 27.8 %) it was 14.9%; in series [1] (NaCl 41.67%), 7.1%; in series [1] (NaCl 55.56 %) it was 4.6%; in series [1] (NaCl 69.44 %), 2.3%; in series [1] (NaCl 83.33 %), 1.3%. The “Loss in the water phase” value in series [2] is 1,3%.
With `CCCCCC=O` [hexanal], the “Distribution in [%] between oil phase and water phase after condensation: Oil phase” value in series [1] (NaCl 0%), in series [1] (NaCl 27.8 %), in series [1] (NaCl 41.67%), in series [1] (NaCl 55.56 %), in series [1] (NaCl 69.44 %) and in series [1] (NaCl 83.33 %) was 100% throughout. In addition, the “Distribution in [%] between oil phase and water phase after condensation: Water phase” value in series [1] (NaCl 0%), in series [1] (NaCl 27.8 %), in series [1] (NaCl 41.67%), in series [1] (NaCl 55.56 %), in series [1] (NaCl 69.44 %) and in series [1] (NaCl 83.33 %) was 0% in each case. In series [2], the “Loss in the water phase” value is reported as 0,0%.
In the case of `CCCCCCCCO` [octanol], the “Distribution in [%] between oil phase and water phase after condensation: Oil phase” value in series [1] (NaCl 0%) is recorded as 91.3%; in series [1] (NaCl 27.8 %) it was 100%; in series [1] (NaCl 41.67%), 100%; in series [1] (NaCl 55.56 %), 100%; in series [1] (NaCl 69.44 %) it was 100%; in series [1] (NaCl 83.33 %), 100%. Also, the “Distribution in [%] between oil phase and water phase after condensation: Water phase” value was 8.7% in series [1] (NaCl 0%); 0% in series [1] (NaCl 27.8 %); 0% in series [1] (NaCl 41.67%); 0% in series [1] (NaCl 55.56 %); 0% in series [1] (NaCl 69.44 %); 0% in series [1] (NaCl 83.33 %). The “Loss in the water phase” value in series [2] was 0,0%.
As to `CCCCCCOC(C)=O` [hexyl acetate], the “Distribution in [%] between oil phase and water phase after condensation: Oil phase” value in series [1] (NaCl 0%) is 93.4%; in series [1] (NaCl 27.8 %), 99.4%; in series [1] (NaCl 41.67%), 100%; in series [1] (NaCl 55.56 %) it was 100%; in series [1] (NaCl 69.44 %) it was 100%; in series [1] (NaCl 83.33 %) it was 100%. For the same compound, the “Distribution in [%] between oil phase and water phase after condensation: Water phase” value in series [1] (NaCl 0%) is 6.6%; in series [1] (NaCl 27.8 %), 0.6%; in series [1] (NaCl 41.67%), 0%; in series [1] (NaCl 55.56 %), 0%; in series [1] (NaCl 69.44 %) it was 0%; in series [1] (NaCl 83.33 %) it was 0%. Moreover, the “Loss in the water phase” value in series [2] is 0,0%.
For `CCCC(CC=O)OCC` (stereo not drawn) [3-ethoxy-hexanal], the “Distribution in [%] between oil phase and water phase after condensation: Oil phase” value is given as 48.4% in series [1] (NaCl 0%); 78.9% in series [1] (NaCl 27.8 %); 89% in series [1] (NaCl 41.67%); 94.6% in series [1] (NaCl 55.56 %); 97.4% in series [1] (NaCl 69.44 %); 98.5% in series [1] (NaCl 83.33 %). The “Distribution in [%] between oil phase and water phase after condensation: Water phase” value in series [1] (NaCl 0%) was 51.6%; in series [1] (NaCl 27.8 %), 21.1%; in series [1] (NaCl 41.67%) it was 11%; in series [1] (NaCl 55.56 %), 5.4%; in series [1] (NaCl 69.44 %), 2.6%; in series [1] (NaCl 83.33 %), 1.5%. In addition, in series [2], the “Loss in the water phase” value is given as 1,5%.
Consider `CCOC(=O)CC` [ethyl propionate], for which the “Distribution in [%] between oil phase and water phase after condensation: Oil phase” value in series [1] (NaCl 0%), in series [1] (NaCl 27.8 %), in series [1] (NaCl 41.67%), in series [1] (NaCl 55.56 %), in series [1] (NaCl 69.44 %) and in series [1] (NaCl 83.33 %) was 0% in each case. Also, the “Distribution in [%] between oil phase and water phase after condensation: Water phase” value in series [1] (NaCl 0%), in series [1] (NaCl 27.8 %), in series [1] (NaCl 41.67%), in series [1] (NaCl 55.56 %), in series [1] (NaCl 69.44 %) and in series [1] (NaCl 83.33 %) was 100% in each case.
